Legend:
[1] = tested on: Br. thermosphacta CRA78883; experiment: Test in cooked minced beef slurry; format: cell-based, Brochothrix thermosphacta; details: 2000 ppm; minced beef slurry at 8° C., pH 6.24, TCM010619
Method: 1 kg of minced beef, purchased from the local butcher, was mixed with 1 litre of BHI. 200 g portion of this meat slurry was autoclaved. When the meat had cooled, the pH was recorded (pH 6.24), and each pot was inoculated with 2.0 ml of 10^5 spores or cells and the meat re-mixed thoroughly. Each inoculated 200 g pot was distributed as 3×50 g portions. To each pot 1 ml of SDW, 5% or 10% APP (Batch No. APP20010215) was added, and the meat was again mixed thoroughly. An initial viable count was performed, the meat was incubated at 8° C. and sampled twice weekly. The pH of the cooked minced beef slurry was 6.24.

Ent. aerogenes 10102 = experiment: Bioscreen growth inhibition test; format: cell-based, Enterobacter aerogenes; details: BS010510, 24 h/30, APP20010213
Method: (§1) For broth cultures and Bioscreen testing most bacteria were grown in Brain Heart Infusion (BHI, Oxoid, pH 7.4). Lactobacillus sake A10 was grown in de Man, Rogosa, Sharpe medium ([…], Oxoid). Yeasts were grown in Sabouraud Liquid medium (SLM, Oxoid). Most bacteria were cultured at 30° C. Lactic acid bacteria were grown on solid medium in enriched CO2 atmosphere. Clostridium species were grown in Reinforced Clostridial Medium (RCM) at 37° C. anaerobically. Brochothrix thermosphacta fungi and yeasts were grown at 25° C. Fungi were cultured on Malt Extract Agar (MEA, Oxoid).
(§2) An automated Microbiology Reader Bioscreen C was used to measure growth curves of the strains in the presence and absence of APP. The Bioscreen C measures the development of turbidity (i.e. growth) kinetically by vertical photometry in 200 wells of a honeycomb microtitre plate, simultaneously. The system consists of a Bioscreen C analyser, which is an incubator and measurement unit, integrated with a PC, software (BioLink v 5.30), printer and a ‘Honeycomb 2’ cuvette multiwell plate. Growth curve data can be analysed within the BioLink software or exported to programs such as Excel.
(§3) Broth culture media were dispensed in 270 μl volumes into the wells as directed. […] (depending on the micro-organism under investigation) with readings taken every 20 minutes after the trays were shaken. […]

Ps. fluorescens 3756 = experiment: Chicken soup trial at 8° C.; format: cell-based, Pseudomonas fluorescens; details: chicken soup at 8° C.
Excerpt: (§4) A local supermarket brand of cream of chicken soup was used as a model food system. 600 g packs were purchased from the local supermarket. This was a ‘fresh home-made type’ of soup that was stored in the chill cabinet, with a short shelf life. It was chosen because it is a rich, nutritious food system containing a range of food components including meat, dairy and vegetable.
(§5) Ingredients were labelled as: chicken stock (water, duck fat, chicken, salt, flavourings, yeast extracts, pork gelatine, glucose syrup, vegetable concentrate, milk protein, sugar, malto-dextrin, vegetable oil, citric acid, lactose, chicken fat), ilk, chicken (9%), cream (8%), onion, potato, vegetable oil, modified maize starch, wheat flour, lemon juice, salt, white pepper. pH 5.912. Protein: 3.3%; carbohydrate: 4.7%; fat: 7.2%; fibre: 0.2%; sodium: 0.1%
(§6) For the test the soup was mixed 2:1 in water (to facilitate sampling and mixing) and sterilised by autoclaving at 121° C. for 15 minutes. For each experiment the pH of the soup was recorded; this was between pH 5.79-5.88.
(§7) For TCS010412/8 (which was incubated at 8° C.), APP batch number APP20010213 (concentration 169 mg APP/ml) was used to prepare tests containing 0, 2000 or 4000 ppm APP. 5 g of filter-sterilised APP stock solution was added to 94 g of soup, mixed and then 1 ml of a diluted inoculum suspension (cells or spores as appropriate) was added to give a test inoculum level of 10^3 cfu/g. The soup mixture was shaken vigorously to ensure homogeneous distribution of the APP and micro-organisms. The tests were tested by viable count and then incubated at 8° C. and tested on a twice-weekly basis.
(§8) For TCS010521/8 (incubated at 8° C.), samples were prepared in 27.8 g quantities. 1.5 g of an APP stock solution was added, and the tests inoculated with 0.3 ml of a suitably diluted cell or spore suspension to give a final inoculum of ca. 10^3 cfu/g. APP was tested at 0, 500 and 1000 ppm, and batch number APP20010213 (at 169 mg/ml) was used. The tests were sampled by viable count and then incubated at 8° C. and tested on a twice-weekly basis.

[2] = tested on: Salmonella Typhimurium S29; experiment: Chicken soup trial at 20° C.; format: cell-based; details: chicken soup at 20° C., TCSM010430, APP20010213
Excerpt: as §4, §5, §6
For TCS010430/20 (incubated at 20° C.) samples were prepared in 18.8 g quantities, to which 1 g of a suitable filter-sterilised APP stock solution was added and an appropriately diluted 0.2 ml inoculum. Great care was again taken to ensure homogeneous distribution of the APP and micro-organisms. This test was sampled by viable count test on a daily basis.

[3] = tested on: Zygosaccharomyces bailii CRA229; experiment: Test in apple juice; format: cell-based; details: for Growth controlled for: apple juice (pH 3.42) at 25° C., TAJ010530
Method: 8.9 ml apple juice samples (pH 3.42) were prepared and autoclaved. Batch number APP20010215 (at 138 mg/ml) was used to prepare filter-sterilised stock solutions for 1 ml addition to the juice to achieve 0, 1000, 2000 ppm APP. Tests were inoculated with 100 μl of an appropriately diluted overnight SLM broth of yeast culture or ascospore suspension of Byssochlamys spores prepared earlier. The tests were incubated at 25° C., and examined daily for signs of growth (e.g. turbidity, mycelium development).

Ps. fluorescens = experiment: Lab media at optimum temperature (summary); format: cell-based, Pseudomonas fluorescens
Method: as §1, §2, §3

B. cereus 204 = experiment: Chicken soup trial at 8° C.; format: cell-based, Bacillus cereus; details: chicken soup at 8° C.
Excerpt: as §4, §5, §6, §7, §8

[4] = 2000 ppm, TCS010412, APP20010213
[5] = 4000 ppm, TCS010412, APP20010213

O=C1CC(CO)OC=C1O (stereo not shown) [APP, Ascopyrone P]
Effect on growth [1]: No effect with 2000 ppm
APP level causing total inhibition (Ent. aerogenes 10102): 4000 ppm
Effect on growth (Ps. fluorescens 3756; 500 ppm, TCSM010521, APP215): Little effect with 500 ppm
Counts undetectable (Ps. fluorescens 3756; 1000 ppm, TCSM010521, APP215): At 1000 ppm counts undetectable >3 d
Total inhibition for (Ps. fluorescens 3756; 1000 ppm, TCSM010521, APP215): Total inhibition by 1000 ppm for >27 days.
Total inhibition for (Ps. fluorescens 3756; [4]): Total inhibition by 2000 and 4000 ppm for >60 days.
Total inhibition for (Ps. fluorescens 3756; [5]): Total inhibition by 2000 and 4000 ppm for >60 days.
Counts undetectable from day (Ps. fluorescens 3756; APP samples (2000, 4000 ppm), TCS010412, APP20010213): Counts undetectable from day 1 in APP samples
Effect on growth ([2]; 1000 ppm): No effect with 1000 ppm
Final count ([2]; 2000 ppm (cf 10^9 without)): 10^6
Counts drop after ([2]; 2000 ppm): 8 days
Counts undetectable by ([2]; 2000 ppm): counts drop, undetectable by 18 d.
Growth controlled for ([3]; 1000 ppm): 34 days
Growth controlled for ([3]; 2000 ppm): 34 days
Partial inhibition (effect on growth of target organism by 2000 ppm APP) ([3]; Apple juice at ambient pH 3.4): Z. bailii
Total inhibition (effect on growth of target organism by 2000 ppm APP) (Ps. fluorescens): Ps. fluorescens
Counts / spore kill (B. cereus 204; 500 and 1000 ppm, TCSM010521, APP215): Counts remain at approx initial level, i.e. no spore kill.
Total inhibition for (B. cereus 204; 500 ppm, TCSM010521, APP215): Total inhibition by 500 and 1000 ppm for >27 days.
Total inhibition for (B. cereus 204; 1000 ppm, TCSM010521, APP215): Total inhibition by 500 and 1000 ppm for >27 days.
Counts / spore kill (B. cereus 204; 2000 and 4000 ppm, TCS010412, APP20010213): Counts remain at initial level, i.e. no spore kill.
Total inhibition for (B. cereus 204; [4]): Total inhibition by 2000 and 4000 ppm for >60 days.
Total inhibition for (B. cereus 204; [5]): Total inhibition by 2000 and 4000 ppm for >60 days.
